Experimental data from US6872401B2, “Cosmetic/dermatological compositions comprising a tetrahydrocurcuminoid and an amide oil” (L'Oreal, priority 2002, dated 2005).

Test: Test of solubility: mixture of tetrahydrocurcuminoids in oils, microscopic examination
Format: physicochemical
Conditions: 1 g Tetrahydrocurcuminoids CG adjusted to 10 g with the oil, 15 minutes at 80° C., cooled 24 hours at room temperature
Procedure: Two amide oils in accordance with the invention are compared to 13 conventional oils used in cosmetics. Their solubilizing power is studied on a mixture of tetrahydrocurcuminoids of formula (I): i.e., the commercial product Tetrahydrocurcuminoids CG from Sabinsa as defined above.
1 g of a mixture of tetrahydrocurcuminoids is weighed and adjusted to 10 g with the oil studied. The mixture is heated for 15 minutes on a waterbath at 80° C. It is allowed to cool for 24 hours at room temperature and a microscopic examination is performed.

## CCCCN(CCC(=O)OCC)C(C)=O [N-acetyl-N-butylaminopropionate]
  SOLUBILITY AFTER 24 HOURS AT ROOM TEMPERATURE: completely dissolve the mixture of tetrahydrocurcuminoids
